The text below walks through data of US11884627B2, “Compounds and compositions for treating conditions associated with LPA receptor activity” (Lhotse Bio, Inc., priority 2022, dated 2024).

Where two headings read alike, the source gives them in different places.

The assay has as its target T1, human LPA1 (Homo sapiens, UniProt Q92633).
T1 construct: expressed in transfected cells; host or cells: CHO-K1
Put plainly: In vitro LPA1 calcium flux antagonist assay - Bioduro protocol. It is filed as cell-based. Conditions: CHO-K1 cells overexpressing human LPA1 and G15a, LPA challenge at EC80. The method, boiled down:
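CHO-K1 cells overexpressing human LPA1 and G15a, serum-starved 4 h, loaded with Fluo-8 AM plus 2.5 mM probenecid in HBSS/20 mM Hepes for 30 min at 37 °C. Compound preincubated 30 min, then LPA challenge at EC80; FLIPR calcium signal, % inhibition relative to DMSO and LPA controls.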

Where [1] appears, read: calcium mobilization on FLIPR Tetra, read-out: IC50.
Setting [2] is: Table B3, read-out: Activity (IC50 class).

T1 sequence (Q92633 whole entry): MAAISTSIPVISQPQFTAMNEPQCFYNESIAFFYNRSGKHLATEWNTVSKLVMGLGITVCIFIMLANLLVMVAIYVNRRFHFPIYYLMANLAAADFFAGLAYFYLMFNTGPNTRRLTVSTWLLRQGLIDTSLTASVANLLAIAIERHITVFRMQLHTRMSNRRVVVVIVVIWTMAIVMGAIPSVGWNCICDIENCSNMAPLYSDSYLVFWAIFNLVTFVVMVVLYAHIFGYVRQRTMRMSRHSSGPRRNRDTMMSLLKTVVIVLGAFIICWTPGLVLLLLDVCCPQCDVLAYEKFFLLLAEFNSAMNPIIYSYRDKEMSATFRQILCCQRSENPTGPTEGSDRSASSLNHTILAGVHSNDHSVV

By IC50 is commonly meant the point on the concentration scale where inhibition reaches its midpoint. Take `CCOc1c(C)ccc(-c2ccc(NC3(C(=O)O)CCOCC3)cc2COC2CC2)c1F` [Compound 381]: the half-maximal inhibitory concentration (IC50) under setting [1] is 17.5 nM and the concentration for half-maximal inhibition (IC50) under setting [2] was less than 100 nM.

As for `COc1cc(-c2ccc(NC3(C(=O)O)CC(OC)C3)cc2COC2CCCC2)c(C)c(OC)c1C` (stereo not shown) [Compound 197], the IC50 was 12.5 nM under setting [1] and less than 100 nM under setting [2].

Consider `COc1cc(-c2c(C)cc(NC3(C(=O)O)CCOCC3)cc2CCC2CCOC2)cc(OC)c1C` (stereo not shown) [Compound 308], for which the half-inhibitory concentration (IC50) under setting [1] was determined as 23.6 nM and the IC50 under setting [2] was less than 100 nM.

Consider `CCOc1c(C)ccc(-c2ccc(OC3(C(=O)O)CCOCC3)cc2COC2CC2)c1C` [Compound 369], for which the IC50 is, setting by setting: under setting [1], 44.8 nM; under setting [2], less than 100 nM.

With `COc1cc(-c2ccc(NC3(C(=O)O)C[C@@H](C)O[C@@H](C)C3)cc2COC2CCCC2)c(F)c(OC)c1C` (stereo partly drawn) [Compound 225, (2R,6S)-4-((2-((cyclopentyloxy)methyl)-2′-fluoro-3′,5′-dimethoxy-4′-methyl-[1,1′-biphenyl]-4-yl)amino)-2,6-dimethyltetrahydro-2H-pyran-4-carboxylic acid], the concentration for half-maximal inhibition (IC50) is, setting by setting: under setting [1], 320 nM; under setting [2], 100 to 1000 nM.

As for `COc1cc(-c2ccc(NC3(C(=O)O)CCOCC3)cc2COC2COc3ccccc32)cc(OC)c1C` (single isomer, unassigned) [Compound 217], the concentration for half-maximal inhibition (IC50) was 584 nM under setting [1] and 100 to 1000 nM under setting [2].

As for `COc1cc(-c2c(F)cc(NC3(C(=O)O)CCOCC3)cc2COC2CCCC2)cc(OC)c1C` [Compound 147, 4-((2-((cyclopentyloxy)methyl)-6-fluoro-3′,5′-dimethoxy-4′-methyl-[1,1′-biphenyl]-4-yl)amino)tetrahydro-2H-pyran-4-carboxylic acid], the IC50 by setting is: under setting [1], 20.9 nM; under setting [2], less than 100 nM.

For the compound `COc1cc(-c2ccc(NC3(C(=O)O)CCNCC3)cc2COC2Cc3ccccc3C2)cc(OC)c1C` [Compound 136], the half-maximal inhibitory concentration (IC50) under setting [1] was 885 nM and the concentration for half-maximal inhibition (IC50) under setting [2] was greater than 1000 nM.

Regarding `COc1cc(-c2c(COC3CCCC3)cc(NC3(C(=O)O)CCOCC3)cc2C(F)(F)F)cc(OC)c1C` [Compound 275], the half-maximal inhibitory concentration (IC50) under setting [1] worked out at 229 nM and the IC50 under setting [2] was 100 to 1000 nM.

For the compound `CCOc1c(C)ncc(-c2ccc(NC3(C(=O)O)CC(F)(F)C3)cc2COC2CC2)c1C` [Compound 414], the IC50 under setting [1] was 112 nM and the half-maximal inhibitory concentration (IC50) under setting [2] lay in the range of 100 to 1000 nM.

Take `COc1cc(-c2cc(F)c(NC3(C(=O)O)CCOCC3)cc2COC2CCCC2)c(F)c(OC)c1C` [Compound 243]: the IC50 by setting is: under setting [1], 82.9 nM; under setting [2], 100 to 1000 nM.

Turning to `O=C(O)C1(Nc2ccc(-c3cccc(OC4CC4)c3C(F)F)c(COC3CC3)c2)CCC(F)(F)CC1` [Compound 389], the IC50 under setting [1] turned out to be 0.772 nM and the IC50 under setting [2] is less than 100 nM.

Take `CCOc1cc(-c2ccc(NC3(C(=O)O)CCOCC3)cc2COC2CCCC2)cc(OC)c1C` [Compound 330]: the IC50 by setting is: under setting [1], 9.53 nM; under setting [2], less than 100 nM.

In the case of `COc1cc(OC)cc(-c2c(C)cc(NC3(C(=O)O)Cc4ccccc4C3)cc2COC2CCCC2)c1` [Compound 188], the IC50 by setting is: under setting [1], 2730 nM; under setting [2], greater than 1000 nM.

Take `COc1cc(-c2ccc(NC3(C(=O)O)CCOCC3)cc2COC2CCC3(CC3)C2)cc(OC)c1C` (stereo not shown) [Compound 219]: the half-inhibitory concentration (IC50) is, setting by setting: under setting [1], 58 nM; under setting [2], less than 100 nM.

For `CCOc1c(C)ccc(-c2ccc(NC3(C(=O)O)CCOCC3)cc2COCC(C)C)c1C` [Compound 394], the IC50 is 97.6 nM under setting [1] and less than 100 nM under setting [2].

For the compound `COc1cc(-c2ccc(NC3(C(=O)O)CCOCC3)cc2COC2CCCC2)cc(OC2CC2)c1C` [Compound 340], the IC50 under setting [1] was found to be 26.1 nM and the IC50 under setting [2] is less than 100 nM.

`COc1cc(-c2c(CC#N)cc(NC3(C(=O)O)CCOCC3)cc2COC2CCCC2)cc(OC)c1C` [Compound 233]: the IC50 runs as follows: under setting [1], 914 nM; under setting [2], 100 to 1000 nM.

In the case of `COc1cc(-c2ccc(OC3(C(=O)O)CCOCC3)cc2COC2CCCC2)c(F)c(OC)c1C` [Compound 209, 4-((2-((cyclopentyloxy)methyl)-2′-fluoro-3′,5′-dimethoxy-4′-methyl-[1,1′-biphenyl]-4-yl)oxy)tetrahydro-2H-pyran-4-carboxylic acid], the 50% inhibitory concentration (IC50) under setting [1] is 15.5 nM and the IC50 under setting [2] was less than 100 nM.

With `COc1c(C(C)=O)ccc(-c2ccc(NC3(C(=O)O)CCOCC3)cc2COC2CCCC2)c1C` [Compound 189], the half-inhibitory concentration (IC50) under setting [1] turned out to be 52.5 nM and the IC50 under setting [2] was less than 100 nM.

Consider `CCOc1cc(OC)cc(-c2ccc(NC3(C(=O)O)CC(F)(F)C3)cc2COC2CC2)c1F` [Compound 367], for which the 50% inhibitory concentration (IC50) was 33.2 nM under setting [1] and less than 100 nM under setting [2].

As for `COc1cc(-c2ccc(NC3(C(=O)O)CCC3)cc2COC2Cc3ccccc3C2)cc(OC)c1C` [Compound 110, 1-((2-(((2,3-dihydro-1H-inden-2-yl)oxy)methyl)-3′,5′-dimethoxy-4′-methyl-[1,1′-biphenyl]-4-yl)amino)cyclobutane-1-carboxylic acid], the IC50 under setting [1] came to 152 nM and the IC50 under setting [2] was 100 to 1000 nM.

Turning to `COc1cc(-c2ccc(NC3(C(=O)O)CCOCC3)cc2COC2CCCC2)c(Cl)c(OC)c1C` [Compound 166], the IC50 reads like this: under setting [1], 9.31 nM; under setting [2], less than 100 nM.

Take `CCOc1cccc(-c2ccc(NC3(C(=O)O)CCOCC3)cc2COC2CC2)c1C(F)(F)F` [Compound 358]: the 50% inhibitory concentration (IC50) is 5.37 nM under setting [1] and less than 100 nM under setting [2].

As to `Cc1ccc(-c2ccc(NC3(C(=O)O)CCOCC3)cc2COC2CC2)c(F)c1OC1CC1` [Compound 392], the half-maximal inhibitory concentration (IC50) under setting [1] worked out at 9.44 nM and the IC50 under setting [2] is less than 100 nM.

With `COc1cc(-c2ccc(CC3(C(=O)O)CCOCC3)cc2COC2CCCC2)c(Cl)c(OC)c1C` [Compound 236], the half-maximal inhibitory concentration (IC50) is 4710 nM under setting [1] and greater than 1000 nM under setting [2].

Consider `COc1cc(OC)c(C(F)F)c(-c2ccc(NC3(C(=O)O)CCOCC3)cc2COC2CCCC2)c1` [Compound 320], for which the half-inhibitory concentration (IC50) was 12.1 nM under setting [1] and less than 100 nM under setting [2].

On to `COc1cc(OC2CC2)c(F)c(-c2ccc(NC3(C(=O)O)CCOCC3)cc2COC2CC2)c1` [Compound 290], for which the half-inhibitory concentration (IC50) runs as follows: under setting [1], 15.8 nM; under setting [2], less than 100 nM.

With `COc1cc(-c2ccc(NC3(C(=O)O)CC(OC)C3)cc2COC2Cc3ccccc3C2)cc(OC)c1C` (single isomer, unassigned) [Compound 125], the half-maximal inhibitory concentration (IC50) was 116 nM under setting [1] and 100 to 1000 nM under setting [2].

As to `COc1cc(-c2ccc(C3(C(=O)O)CCOCC3)cc2COC2CCCC2)c(Cl)c(OC)c1C` [Compound 235], the half-inhibitory concentration (IC50) by setting is: under setting [1], 198 nM; under setting [2], 100 to 1000 nM.

As to `COc1cc2c(c(-c3ccc(NC4(C(=O)O)CCOCC4)cc3COC3CCCC3)c1)OCO2` [Compound 199], the IC50 is, setting by setting: under setting [1], 3210 nM; under setting [2], greater than 1000 nM.

`COc1cc(-c2c(COC3CCCC3)cc(NC3(C(=O)O)CCOCC3)cc2C(F)F)cc(OC)c1C` [Compound 273]: the IC50 under setting [1] is 17.1 nM and the half-maximal inhibitory concentration (IC50) under setting [2] is less than 100 nM.

Consider `O=C(O)C1(Nc2ccc(-c3cccc(OC4CC4)c3C(F)F)c(COC3CC3)c2)CCOCC1` [Compound 322], for which the IC50 under setting [1] came to 5.9 nM and the IC50 under setting [2] is less than 100 nM.

In the case of `CCOc1nccc(-c2ccc(NC3(C(=O)O)CCOCC3)cc2COC2CC2)c1C(F)F` [Compound 338], the half-maximal inhibitory concentration (IC50) was 17.2 nM under setting [1] and less than 100 nM under setting [2].

For the compound `COc1cc(-c2ccc(NC3(C(=O)O)CCOCC3)cc2COC2Cc3ccccc3C2)cc(OC)c1C#N` [Compound 127], the IC50 runs as follows: under setting [1], 16.3 nM; under setting [2], less than 100 nM.

Consider `CCOc1cncc(-c2ccc(NC3(C(=O)O)CCOCC3)c(F)c2COC2CC2)c1C(F)F` [Compound 409], for which the IC50 under setting [1] was determined as 229 nM and the IC50 under setting [2] lay within 100 to 1000 nM.

`CCOc1cccc(-c2ccc(NC3(C(=O)O)CCOCC3)cc2CCC2CC2)c1F` [Compound 373]: the half-inhibitory concentration (IC50) is 1.2 nM under setting [1] and less than 100 nM under setting [2].

Turning to `COc1cc(-c2ccc(NC3(C(=O)O)CCOCC3)cc2COC2CC2)c(C(F)F)c(OC)n1` [Compound 314], the IC50 by setting is: under setting [1], 37 nM; under setting [2], less than 100 nM.

For the compound `CCOc1cccc(-c2ccc(NC3(C(=O)O)CCOCC3)cc2COC2CC2)c1C(F)F` [Compound 279, 4-((2-(cyclopropoxymethyl)-2′-(difluoromethyl)-3′-ethoxy-[1,1′-biphenyl]-4-yl)amino)tetrahydro-2H-pyran-4-carboxylic acid], the IC50 reads like this: under setting [1], 4.19 nM; under setting [2], less than 100 nM.

`CCOc1cccc(-c2ccc(NC3(C(=O)O)CCOCC3)cc2COC2CCCC2)c1Cl` [Compound 264]: the half-maximal inhibitory concentration (IC50) runs as follows: under setting [1], 5.42 nM; under setting [2], less than 100 nM.

Turning to `COc1cc(-c2ccc(OCC3(C(=O)O)CCOCC3)cc2COC2CCCC2)c(F)c(OC)c1C` [Compound 232], the half-maximal inhibitory concentration (IC50) reads like this: under setting [1], 756 nM; under setting [2], 100 to 1000 nM.

Consider `COC(=O)N1CC(Nc2ccc(-c3cc(OC)c(C)c(OC)c3)c(COC3CCCC3)c2)(C(=O)O)C1` [Compound 144], for which the IC50 runs as follows: under setting [1], 59.5 nM; under setting [2], less than 100 nM.

Take `CCOc1c(C)c(OC)cc(-c2ccc(NC3(C(=O)O)CCOCC3)cc2COCC(C)C)c1F` [Compound 396]: the half-inhibitory concentration (IC50) was 27.5 nM under setting [1] and less than 100 nM under setting [2].

On to `COc1cc(-c2ccc(NC3(C(=O)O)CCC(C)(OC)CC3)cc2COC2CCCC2)c(F)c(OC)c1C` (single isomer, unassigned) [Compound 237], for which the concentration for half-maximal inhibition (IC50) was 63.6 nM under setting [1] and less than 100 nM under setting [2].

Consider `COc1cc(-c2ccc(NC3(C(=O)O)CCC(O)CC3)cc2COC2CCCC2)cc(OC)c1C` (stereo not shown) [Compound 206], for which the 50% inhibitory concentration (IC50) was 476 nM under setting [1] and 100 to 1000 nM under setting [2].

Regarding `CCOc1cc(OC)cc(-c2ccc(NC3(C(=O)O)CCOCC3)cc2COCC(C)C)c1F` [Compound 395], the concentration for half-maximal inhibition (IC50) runs as follows: under setting [1], 7.94 nM; under setting [2], less than 100 nM.

In the case of `CCOc1cc(OC)cc(-c2ccc(C3(C(=O)O)CC3)cc2COC2CCCC2)c1F` [Compound 391], the half-inhibitory concentration (IC50) is 471 nM under setting [1] and 100 to 1000 nM under setting [2].
